The record followed here is US8343475B2, “Small cationic antimicrobial peptides” (priority 2006, dated 2013).

≈ marks a conversion by molar mass, not a printed value. Residues, ends and D or L forms follow the SMILES beside them. No end group written: not given here.

For assay [1], the system named is LPS-stimulated TNFα production in THP-1 cells. Nature of the assay: Suppression of P. aeruginosa LPS-stimulated TNFα production (ELISA). In kind it is cell-based, human. Particulars: for ability to inhibit TNFα responses compared with indolicidin: 10 ng/ml P. aeruginosa LPS, peptides at 10, 20 and 50 μg/ml (FIG. 13). As to the method:
FIG. 12. Assessment of the ability of peptides to suppress P. aeruginosa LPS (10 ng/ml)-stimulated TNFα production in THP1 cells. Presented results are the mean values for 4 wells performed on 2 separate occasions. The x-axis number labeling is the amount of each peptide in μg/ml for the corresponding peptides.
FIG. 13. Suppression of inflammatory responses by peptides. Monocyte/macrophage-like adherent THP-1 cells were stimulated with 10 ng/ml P. aeruginosa LPS and the resulting TNFα response measured. Peptides were added at 10, 20 and 50 μg/ml. The observed TNF-release was measured by ELISA and related to the 100% value of the untreated (without peptide) cells.
Cytotoxicity and TNFα suppression assay. THP1 cells were cultured in RPMI 1640 medium (supplemented with 10% (v/v) FCS, 1% L-glutamine, and […] sodium pyruvate) in E-toxa-clean (Sigma-Aldrich, Oakville, Ontario, Canada)-washed, endotoxin-free bottle. THP1 cells were counted and 250 μl per well of […] were transferred into a 96 well tissue cultured treated polystyrene microtiterplate (Beckton Dickinson, Franklin Lakes, USA). In addition PMA were added (1.3 nM) and the cells were incubated for three days. After three days the medium were exchanged and Pseudomonas aeruginosa LPS and the peptides were added. The incubation time was four hours and the supernatant was frozen at −20° C. The cells were stained with Tryphan Blue for 2 minutes and washed with PBS two times. The viability of the cells was determined by counting the stained cells over the unstained. The supernatent was used to measure the TNFα production by an ELISA (eBioscience, San Diego, USA) following the manufactures protocol.
LPS from P. aeruginosa strain H103 was highly purified free of proteins and lipids using the Darveau-Hancock method. Briefly, P. aeruginosa was grown overnight in LB broth at 37° C. Cells were collected and washed and the isolated LPS pellets were extracted with a 2:1 chloroform:methanol solution to remove contaminating lipids. Purified LPS samples were quantitated using an assay for the specific sugar 2-keto-3-deoxyoctosonic acid (KDO assay) and then resuspended in endotoxin-free water (Sigma-Aldrich).
Human monocytic cells, THP-1, were obtained from American type culture collection, ATCC® (TIB-202) and were grown in suspension in RPMI-1640 media (Gibco®, Invitrogen™ Life technologies, Burlington, ON), supplemented with 10% (v/v) heat inactivated fetal bovine serum (FBS), 2 mM L-glutamine and 1 mM sodium pyruvate (all from Invitrogen Life Technologies). Cultures were maintained at 37° C. in a humidified 5% (v/v) CO2 incubator up to a maximum of six passages. THP-1 cells at a density of 1×10^6 cells/ml were treated with 0.3 μg/ml phorbol 12-myristate 13-acetate (PMA; Sigma-Aldrich Canada, Oakville ON) for 24 hours, inducing plastic-adherent cells that were further rested in complete RPMI-1640 medium for an additional 24 hours prior to stimulation with various treatments including P. aeruginosa LPS (10 ng/ml) with or without peptides for 24 hours after which supernatants were collected and TNFα assessed by ELISA.
THP-1 cells were stimulated with LPS (10 ng/ml) with or without peptide (10 or 100 μg/ml) for 4 hours as indicated in the results section. Following incubation of the cells under various treatment regimens, the tissue culture supernatants were centrifuged at 1000×g for 5 min, then at 10,000×g for 2 min to obtain cell-free samples. Supernatants were aliquoted and then stored at −20° C. prior to assay for various cytokines. TNFα secretion was detected with a capture ELISA (eBioscience and BioSource International Inc., CA, USA respectively).

A further assay relates to Escherichia coli UB1005. In kind it is cell-based. The note with it: indolicidin substitution variants (Table 4). In outline: (§1)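 MIC read as the concentration giving no visible growth after overnight incubation at 37° C. Peptides were diluted in 0.01% acetic acid containing 0.2% bovine serum albumin and tested in Mueller Hinton broth against 2-7×10^5 CFU/ml inoculum in polypropylene microtitre plates.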

For assay [2], the system named is wild-type Salmonella enterica ssp. typhimurium. In kind it is cell-based. The gist of the method: as §1
Assay [3] has as its system Enterococcus faecalis ATCC29212. In kind it is cell-based. Particulars: ATCC29212. In outline:
as §1

The test system of assay [4] is Staphylococcus aureus ATCC25923. In kind it is cell-based. The note with it: ATCC25923. In outline:
as §1

For assay [5], the system named is lab isolate of Candida albicans. In kind it is cell-based. Particulars: lab isolate of. The gist of the method:
as §1

In assay [6] the test system is clinical isolate of Staphylococcus epidermidis. In kind it is cell-based. Particulars: clinical isolate of. In outline: as §1
The subject of assay [7] is Pseudomonas aeruginosa PAO1 strain H103. In kind it is cell-based. The note with it: PAO1. In outline:
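Modified broth microdilution MIC in Mueller Hinton medium, peptides diluted in 0.01% acetic acid/0.2% BSA, polypropylene plates. Inoculum 2-7×10^5 CFU/ml, overnight at 37 °C; MIC is the lowest concentration with no visible growth.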

“HH1011: peptide derived from indolicidin; sequence not in the text shown (RWRWWRWRR-NH2)”: in assay [1], the “ability to inhibit TNFα responses compared with indolicidin” value is on record as “slightly better or equivalent than indolicidin”.

As for LL-37 [reference compound], the “suppression of LPS-induced TNFα” value in assay [1] (P. aeruginosa LPS 10 ng/ml (FIG. 12)) is reported as “strongly suppressed”.

For `CC[C@H](C)[C@H](N)C(=O)N[C@@H](CC(C)C)C(=O)N1CCC[C@H]1C(=O)N[C@@H](Cc1c[nH]c2ccccc12)C(=O)N[C@@H](CCCCN)C(=O)N[C@@H](Cc1ccccc1)C(=O)N1CCC[C@H]1C(=O)N[C@@H](Cc1c[nH]c2ccccc12)C(=O)N[C@@H](Cc1c[nH]c2ccccc12)C(=O)N1CCC[C@H]1C(=O)N[C@@H](Cc1c[nH]c2ccccc12)C(=O)N[C@@H](CCCNC(=N)N)C(=O)N[C@@H](CCCNC(=N)N)C(N)=O` [HH63, ILPWKFPWWPWRR] (H-ILPWKFPWWPWRR-NH2; N-terminus assumed), the “ability to inhibit TNFα responses compared with indolicidin” value in assay [1] was “slightly better or equivalent than indolicidin”. In addition, the “MIC E. coli” value in the assay on Escherichia coli UB1005 came to 16 µg/mL (≈ 8.57 µM). Besides, in assay [2], the “MIC S. typhi” value turned out to be 31 µg/mL (≈ 16.6 µM). In addition, in assay [3], the “MIC E. faecalis” value was 31 µg/mL (≈ 16.6 µM). In addition, in assay [4], the “MIC S. aureus” value was determined as 8 µg/mL (≈ 4.28 µM). Further, the “MIC C. albicans” value in assay [5] was 16 µg/mL (≈ 8.57 µM). Also, the “MIC S. epi.” value in assay [6] was found to be 4 µg/mL (≈ 2.14 µM). In addition, the “MIC P. aerug” value in assay [7] is 62 µg/mL (≈ 33.2 µM).

In the case of `CC[C@H](C)[C@H](N)C(=O)N[C@@H](CC(C)C)C(=O)N1CCC[C@H]1C(=O)N[C@@H](Cc1c[nH]c2ccccc12)C(=O)N[C@@H](CCCCN)C(=O)N[C@@H](Cc1c[nH]c2ccccc12)C(=O)N1CCC[C@H]1C(=O)N[C@@H](Cc1c[nH]c2ccccc12)C(=O)N[C@@H](Cc1c[nH]c2ccccc12)C(=O)N[C@@H](CCCCN)C(=O)N[C@@H](Cc1c[nH]c2ccccc12)C(=O)N[C@@H](CCCNC(=N)N)C(=O)N[C@@H](CCCNC(=N)N)C(N)=O` [HH117, ILPWKWPWWKWRR] (H-ILPWKWPWWKWRR-NH2; N-terminus assumed), in assay [1], the “ability to inhibit TNFα responses compared with indolicidin” value is reported as “slightly better or equivalent than indolicidin”. Besides, the “MIC E. coli” value against Escherichia coli UB1005 was 8 µg/mL (≈ 4.13 µM). In addition, in assay [2], the “MIC S. typhi” value stood at 31 µg/mL (≈ 16 µM). The “MIC E. faecalis” value in assay [3] came out at 31 µg/mL (≈ 16 µM). In addition, the “MIC S. aureus” value in assay [4] amounted to 8 µg/mL (≈ 4.13 µM). The “MIC C. albicans” value in assay [5] was 16 µg/mL (≈ 8.26 µM). Also, the “MIC S. epi.” value in assay [6] was found to be 2 µg/mL (≈ 1.03 µM). For the same molecule, the “MIC P. aerug” value in assay [7] was 16 µg/mL (≈ 8.26 µM).

Take “HH1010: peptide derived from indolicidin; sequence not in the text shown (ILRWKWRWWRWRR-NH2)”: the “ability to inhibit TNFα responses compared with indolicidin” value in assay [1] is “slightly better or equivalent than indolicidin”.

In the case of `CC[C@H](C)[C@H](N)C(=O)N[C@@H](CC(C)C)C(=O)N1CCC[C@H]1C(=O)N[C@@H](Cc1c[nH]c2ccccc12)C(=O)N[C@@H](Cc1c[nH]c2ccccc12)C(=O)N[C@@H](Cc1c[nH]c2ccccc12)C(=O)N1CCC[C@H]1C(=O)N[C@@H](Cc1c[nH]c2ccccc12)C(=O)N[C@@H](Cc1c[nH]c2ccccc12)C(=O)N1CCC[C@H]1C(=O)N[C@@H](Cc1c[nH]c2ccccc12)C(=O)N[C@@H](CCCNC(=N)N)C(=O)N[C@@H](CCCNC(=N)N)C(N)=O` [HH235, ILPWWWPWWPWRR] (H-ILPWWWPWWPWRR-NH2; N-terminus assumed), the “ability to inhibit TNFα responses compared with indolicidin” value in assay [1] is “slightly better or equivalent than indolicidin”. The “MIC E. coli” value with Escherichia coli UB1005 was greater than 84 µg/mL. Besides, in assay [2], the “MIC S. typhi” value was greater than 84 µg/mL. Further, the “MIC E. faecalis” value in assay [3] turned out to be 84 µg/mL (≈ 42.8 µM). Besides, the “MIC S. aureus” value in assay [4] stood at 20 µg/mL (≈ 10.2 µM). Moreover, the “MIC C. albicans” value in assay [5] came to 84 µg/mL (≈ 42.8 µM). Moreover, the “MIC S. epi.” value in assay [6] came to 5 µg/mL (≈ 2.55 µM). Further, in assay [7], the “MIC P. aerug” value was greater than 84 µg/mL.

On to `CC[C@H](C)[C@H](N)C(=O)N[C@@H](CC(C)C)C(=O)N[C@@H](CCCCN)C(=O)N[C@@H](Cc1c[nH]c2ccccc12)C(=O)N[C@@H](CCCCN)C(=O)N[C@@H](Cc1c[nH]c2ccccc12)C(=O)N1CCC[C@H]1C(=O)N[C@@H](Cc1c[nH]c2ccccc12)C(=O)N[C@@H](Cc1c[nH]c2ccccc12)C(=O)N1CCC[C@H]1C(=O)N[C@@H](Cc1c[nH]c2ccccc12)C(=O)N[C@@H](CCCNC(=N)N)C(=O)N[C@@H](CCCNC(=N)N)C(N)=O` [HH111, ILKWKWPWWPWRR], for which the “ability to inhibit TNFα responses compared with indolicidin” value in assay [1] is reported as “slightly better or equivalent than indolicidin”. Also, the “MIC E. coli” value with Escherichia coli UB1005 stood at 8 µg/mL (≈ 4.13 µM). The “MIC S. typhi” value in assay [2] was 31 µg/mL (≈ 16 µM). Moreover, the “MIC E. faecalis” value in assay [3] was 31 µg/mL (≈ 16 µM). The “MIC S. aureus” value in assay [4] worked out at 8 µg/mL (≈ 4.13 µM). The “MIC C. albicans” value in assay [5] is 8 µg/mL (≈ 4.13 µM). Moreover, the “MIC S. epi.” value in assay [6] was determined as 4 µg/mL (≈ 2.06 µM). The “MIC P. aerug” value in assay [7] worked out at 16 µg/mL (≈ 8.26 µM).
